{
  "source": "paper PMC7181660",
  "about": "“A novel specific PERK activator reduces toxicity and extends survival in Huntington's disease models” (Scientific Reports, 2020)",
  "key": {"[1]": {"test_system": "R6/2 HD mouse model", "assay": "Blood glucose levels", "type": "in vivo, mice", "conditions": "TG + MK-28", "experimental": "For blood glucose measurements, blood samples from all the evaluated groups (n = 34) were obtained from the tail and measured with the Accu-Check glucose monitor (Roche Diagnostics, USA). Two independent glucose measurements were performed at the same hour 3 and 12 weeks after birth corresponding to the asymptomatic and symptomatic stages respectively. Glucose levels are expressed in mg/dl."}, "[2]": {"test_system": "eIF2α-P", "assay": "Brain striatum immunofluorescence of eIF2α-P / total eIF2α", "type": "in vivo, mice", "conditions": "week 4 after pump implantation", "experimental": "Under anesthesia, animals were perfused with 4% PFA (formaldehyde in phosphate-buffered saline (PBS)) and the brains were removed and soaked in 4% PFA overnight. Then, brains were incubated overnight in 30% sucrose solution and frozen in OCT compound Tissue-Tek by using dry ice. Sections (10 µm) of the striatum were obtained by cryostat. Brain sections were processed for immunochemistry with the kind help of Daniel Frenkel. They were washed with PBS for 10 minutes, incubated in 0.5% triton-X-100 for 10 minutes and then in blocking solution containing 1% bovine serum albumin (BSA), 10% normal goat serum and 0.25% triton for one hour at room temperature. The samples were rinsed with PBS and incubated overnight at 4 °C with the selected primary antibody diluted in blocking solution (eIF2α-mouse [1:400] and phosphorylated eIF2α-rabbit [1:400]). […] After washing with PBS, samples were placed in DAPI (4′,6-diamidino-2-phenylindole) diluted in PBS for 10 minutes, mounted and examined by confocal microscope Zeiss LSM-510, 3 slides were analysed from each subject.\nSignal quantification and cell counting were done using the ImageJ program. The value obtained for the phosphorylated eIF2α signal was divided by the total eIF2α signal in the same image. […] Statistical significance was determined at P < 0.05."}, "[3]": {"test_system": "CHOP mRNA", "assay": "CHOP mRNA by qPCR in STHdh^Q7/7 and STHdh^Q111/111 cells", "type": "cell-based, murine", "conditions": "both cell types, qPCR vs GAPDH", "experimental": "Total cell RNA was extracted with TRIzol reagent (Invitrogen) according to the manufacturer's instructions. Reverse transcription (RT) was performed with QuantaBio qScript cDNA synthesis kit. Real-time qPCR was carried out using a CFX Connect Real-Time PCR Detection System (BioRad) and the amplifications were done using the SYBR Green PCR Master Mix (pcrbio). Reactions were run in triplicates in three independent experiments. Housekeeping gene GAPDH was used as an internal control to normalize the variability of expression levels."}, "[4]": {"test_system": "PERK−/− MEF cells", "assay": "Rescue from tunicamycin-induced apoptosis in PERK−/− MEFs", "type": "cell-based", "conditions": "Tun", "experimental": "(§1) STHdh^Q111/111 cells (used before[13]) or PERK+/+ or PERK−/− MEFs (kindly provided by David Ron, Univ. Cambridge) were incubated with Tun (10 μg/ml) for 48 h, which results in ER stress-induced cell death. Cells under the same conditions were incubated for the same times, together with Tun, with increasing concentrations of the different PERK modulators (0–120 μM) and the percent of apoptotic cells was measured by FACS cell cycle progression using propidium iodide (PI), considering the fraction beneath G0/G1. The relative apoptosis rate was calculated to be able to compare between compounds and experiments, where for each concentration curve the percent of apoptotic cells was considered 100 at concentration 0 of the PERK modulator, with only Tun. The graphs show the average relative apoptosis rate of at least 3 independent experiments for each compound.\n(§2) Cells were washed with PBS and fixed with cold methanol. Before FACS analysis cells were washed with PBS, followed by addition of propidium iodide (PI) solution (10 μg/ml) and analysis by flow cytometry. Cells in sub-G0/G1 were counted as apoptotic/ dead."}, "[5]": {"test_system": "R6/2 HD mouse model", "assay": "Combined phenotype score (hind limb clasping, ledge, gait, kyphosis)", "type": "in vivo, mice", "conditions": "R6/2 TG, 1 mg/kg subcutaneous 28 days", "experimental": "[…]. Measures include hind limb clasping, ledge test, gait and kyphosis. See detailed information in Supplementary methods.\nGroup # Animals # Treatment Volume bleeding and\nDetermination of MK-28 levels in the plasma and brain were performed by LC/MS/MS using\ngeneric methods in the bioanalytical lab of WuXi AppTec Co., Ltd. (Shanghai, China). The\nMK-28 concentrations were determined in the plasma and whole perfused brain tissues of the\nanimals following a single IP injection of 10 mg/kg.\nCombined phenotype: A method assessing a combination of different disease -phenotypes\nwas used to evaluate disease progression. Phenotypic evaluation includes hind-limb\nclasping, ledge test, gait and kyphosis. Limb clasping: hind-limb clasping behavior was\nevaluated and different scores were given based on their performance on a scale from 0 to 3: 0\n= normal; 1 = clasps hind-limb s within 30s of being suspended in the air; 2 = cla sps hind-limb s\nwithin 5s, recovering when released after 30s; 3 = clasps hind-limbs within 5s and has difficulty\nrecovering when released after 30s. Ledge test: The ledge test evaluates motor coordination by\nplacing mice on the ledge of the cage. Typically, mice will walk along the ledge and attempt\nto descend back into the cage. Walking without losing balance is considered normal and\nassigned a score of 0. A score of 1 is given if the mouse misse s its footing while walking. If […]"}, "[6]": {"test_system": "STHdh^Q111/111 cells", "assay": "Toxicity assay: rescue from tunicamycin (ER stress)-induced apoptosis, FACS with propidium iodide (sub-G0/G1)", "type": "cell-based, murine", "experimental": "as §1, §2"}, "[7]": {"assay": "Body weight during therapeutic study (Alzet minipumps)", "type": "in vivo, mice", "conditions": "1 mg/kg subcutaneous minipump, 7 weeks after pump implantation", "experimental": "Alzet pumps model 1004 (Alzet, USA), with a rate of 0.11 µl/hour and 28 days effective compound delivery was used. MK-28 compound was dissolved in 1:1 DMSO/PEG400 and prepared to delivery subcutaneously 6 mg/kg MK-28 for toxicity studies (n = 8) or 1 mg/kg for therapeutic evaluation in R6/2 mice (n = 72). For toxicity studies mice receiving six times the therapeutic dose of MK-28 or vehicle were weighed every two days for two consecutive weeks. […]. Alzet pumps were implanted in 4 weeks old mice and MK-28 was administered at 1 mg/kg with continuous dosing for 28 days. […]"}},
  "data": [
    {"compound": "CN(/N=C\\c1ccc(O)c(O)c1)c1nc(-c2ccccc2)cc(-c2ccccc2)n1", "note": "[MK-28]", "values": [
      {"measurement": "glucose increase ratio between disease stages (symptomatic vs asymptomatic)", "setting": "[1]", "result": "109.60 ± 5.04", "unit": "%"},
      {"measurement": "increase of eIF2α-P levels in striatum", "setting": "[2]; TG mice", "result": "~ 6 fold"},
      {"measurement": "increase of eIF2α-P levels in striatum", "setting": "[2]; WT mice", "result": "~ 7 fold"},
      {"measurement": "increase of CHOP mRNA levels", "setting": "[3]", "result": "up to 10 fold"},
      {"measurement": "protection from ER stress-induced cell death", "setting": "[4]", "result": "failed to protect"},
      {"measurement": "composite phenotype score", "setting": "[5]; week 6", "result": "3.14 ± 1.41"},
      {"measurement": "composite phenotype score", "setting": "[5]; week 8", "result": "4.4 ± 0.55"},
      {"measurement": "rescue from ER stress-induced apoptosis", "setting": "[6]; 0–100 μM, 48 h Tun exposure (Fig. 1C)", "result": "able to rescue the cells from apoptosis"},
      {"measurement": "reduction of apoptosis", "setting": "[6]; 5 μM, 48 h Tun exposure", "result": 20, "unit": "%"},
      {"measurement": "reduction of apoptosis", "setting": "[6]; 10 μM, Tun (Fig. 4C)", "result": 40, "unit": "%"},
      {"measurement": "reduction of apoptosis", "setting": "[6]; 100 μM, 48 h Tun exposure", "result": 5, "unit": "fold"},
      {"measurement": "IC50 ratio MK-28 vs CCT020312 in rescuing mHtt-expressing striatal neurons from apoptosis", "setting": "[6]; Fig. 4C", "result": "~ 3 fold"},
      {"measurement": "IC50", "setting": "[6]; Mus musculus, STHdhQ111, STHdh^Q111/111 cells treated with Tun, read-out: IC50 for inhibition of apoptosis", "result": 6.8, "unit": "µM"},
      {"measurement": "concentration that showed identical levels of apoptosis in STHdh^Q111/111 and STHdh^Q7/7 cells", "setting": "[6]; Tun (Fig. 1D)", "result": 50, "unit": "µM"},
      {"measurement": "weight, MK-28 vs vehicle", "setting": "[7]", "result": "no significant differences"}
    ]}
  ]
}
